# Measurements as given in publication PMC5218480 (PLoS ONE, 2017).
# Tested on: MV-4-11 cells
# Experiment: Gene expression microarray analysis (Affymetrix PrimeView) and GSEA
# Format: cell-based, human
# Parameters: RFU PODN (11730768_x_at) / Fold change /veh PODN (11730768_x_at) / RFU LINC00158 (11744669_a_at) / Fold change /veh LINC00158 (11744669_a_at) / RFU DUSP10 (11751237_a_at) / Fold change /veh DUSP10 (11751237_a_at) / RFU ID3 (11757404_x_at) / Fold change /veh ID3 (11757404_x_at) / RFU PLEKHG5 (11737974_s_at) / Fold change /veh PLEKHG5 (11737974_s_at) / RFU LRRC4B (11730491_at) / Fold change /veh LRRC4B (11730491_at) / RFU GIMAP4 (11747438_a_at) / Fold change /veh GIMAP4 (11747438_a_at) / RFU KRT8 (11758183_x_at) / Fold change /veh KRT8 (11758183_x_at) / RFU CNN1 (11734310_a_at) / Fold change /veh CNN1 (11734310_a_at) / RFU VPS37D (11726825_at) / Fold change /veh VPS37D (11726825_at) / RFU C10orf10 (11716522_x_at) / Fold change /veh C10orf10 (11716522_x_at) / RFU KIR2DL2 /// KIR2DL4 /// KIR2DL5A /// KIR2DL5B /// KIR2DS1 /// KIR2DS2 /// KIR2DS3 /// KIR2DS4 /// KIR3DL3 /// KIR3DL3 /// KIR3DS1 (11738374_at) / Fold change /veh KIR2DL2 /// KIR2DL4 /// KIR2DL5A /// KIR2DL5B /// KIR2DS1 /// KIR2DS2 /// KIR2DS3 /// KIR2DS4 /// KIR3DL3 /// KIR3DL3 /// KIR3DS1 (11738374_at) / RFU C1QL1 (11718748_at) / Fold change /veh C1QL1 (11718748_at) / RFU TMPRSS4 (11747572_a_at) / Fold change /veh TMPRSS4 (11747572_a_at) / RFU HAMP (11756126_x_at) / Fold change /veh HAMP (11756126_x_at) / RFU RNFT2 (11725882_a_at) / Fold change /veh RNFT2 (11725882_a_at) / RFU NR4A2 (11747474_a_at) / Fold change /veh NR4A2 (11747474_a_at) / RFU ABCC12 (11746883_a_at) / Fold change /veh ABCC12 (11746883_a_at) / RFU TMEM136 (11760407_x_at) / Fold change /veh TMEM136 (11760407_x_at) / RFU CLDN22 /// WWC2 (11732394_at) / Fold change /veh CLDN22 /// WWC2 (11732394_at) / RFU HLA-DPB1 (11760878_x_at) / Fold change /veh HLA-DPB1 (11760878_x_at) / RFU SPINT1 (11716480_a_at) / Fold change /veh SPINT1 (11716480_a_at) / RFU GAP43 (11754022_s_at) / Fold change /veh GAP43 (11754022_s_at) / RFU A4GNT (11735810_at) / Fold change /veh A4GNT (11735810_at) / RFU PRB3 (11715151_x_at) / Fold change /veh PRB3 (11715151_x_at) / RFU TUBB4B (11761932_at) / Fold change /veh TUBB4B (11761932_at) / RFU CAPN14 (11732068_a_at) / Fold change /veh CAPN14 (11732068_a_at) / RFU TMCC2 (11721928_a_at) / Fold change /veh TMCC2 (11721928_a_at) / RFU IRGQ (11745062_a_at) / Fold change /veh IRGQ (11745062_a_at) / RFU FAM174B (11720279_a_at) / Fold change /veh FAM174B (11720279_a_at) / RFU TMPRSS4 (11748680_a_at) / Fold change /veh TMPRSS4 (11748680_a_at) / RFU FAM212B (11763350_a_at) / Fold change /veh FAM212B (11763350_a_at) / RFU PLEKHG5 (11743358_a_at) / Fold change /veh PLEKHG5 (11743358_a_at) / RFU ZSCAN30 (11745921_a_at) / Fold change /veh ZSCAN30 (11745921_a_at) / RFU CMKLR1 (11741424_a_at) / Fold change /veh CMKLR1 (11741424_a_at) / RFU LOC101060620 /// MAPK8IP1 (11723275_at) / Fold change /veh LOC101060620 /// MAPK8IP1 (11723275_at) / RFU SPTSSB (11747773_x_at) / Fold change /veh SPTSSB (11747773_x_at) / RFU PRSS12 (11739890_at) / Fold change /veh PRSS12 (11739890_at) / RFU BIN1 (11741810_x_at) / Fold change /veh BIN1 (11741810_x_at) / RFU WNT11 (11732464_a_at) / Fold change /veh WNT11 (11732464_a_at) / RFU C10orf10 (11716521_a_at) / Fold change /veh C10orf10 (11716521_a_at) / RFU C5orf56 (11738089_at) / Fold change /veh C5orf56 (11738089_at) / RFU CYB561 (11721691_x_at) / Fold change /veh CYB561 (11721691_x_at) / RFU ANKRD19P (11752326_a_at) / Fold change /veh ANKRD19P (11752326_a_at) / RFU OR2T12 /// OR2T33 /// OR2T8 (11738714_s_at) / Fold change /veh OR2T12 /// OR2T33 /// OR2T8 (11738714_s_at) / RFU VCAN (11748164_a_at) / Fold change /veh VCAN (11748164_a_at) / RFU JSRP1 (11732532_at) / Fold change /veh JSRP1 (11732532_at) / RFU KRTAP10-11 (11738290_x_at) / Fold change /veh KRTAP10-11 (11738290_x_at) / RFU MYO3A (11730013_a_at) / Fold change /veh MYO3A (11730013_a_at) / RFU EBF3 (11725865_a_at) / Fold change /veh EBF3 (11725865_a_at) / RFU CAMK2N1 (11719241_x_at) / Fold change /veh CAMK2N1 (11719241_x_at) / RFU C5orf56 (11738088_a_at) / Fold change /veh C5orf56 (11738088_a_at) / RFU OLFML3 (11715873_a_at) / Fold change /veh OLFML3 (11715873_a_at) / RFU LOC100653217 /// NTM (11731650_a_at) / Fold change /veh LOC100653217 /// NTM (11731650_a_at) / RFU MAPK11 (11762145_a_at) / Fold change /veh MAPK11 (11762145_a_at) / RFU FIZ1 (11724087_x_at) / Fold change /veh FIZ1 (11724087_x_at) / RFU OASL (11726364_x_at) / Fold change /veh OASL (11726364_x_at) / RFU SOX15 (11748057_x_at) / Fold change /veh SOX15 (11748057_x_at) / RFU CD79A (11719716_a_at) / Fold change /veh CD79A (11719716_a_at) / RFU HIST1H1D (11736915_at) / Fold change /veh HIST1H1D (11736915_at) / RFU CASKIN2 (11723855_a_at) / Fold change /veh CASKIN2 (11723855_a_at) / RFU LOC730098 (11760151_x_at) / Fold change /veh LOC730098 (11760151_x_at) / RFU OR4N2 (11742367_at) / Fold change /veh OR4N2 (11742367_at) / RFU PRRT2 (11749266_a_at) / Fold change /veh PRRT2 (11749266_a_at) / RFU SNX32 (11753110_a_at) / Fold change /veh SNX32 (11753110_a_at) / RFU CDHR5 (11726645_a_at) / Fold change /veh CDHR5 (11726645_a_at) / RFU RCAN1 (11760418_a_at) / Fold change /veh RCAN1 (11760418_a_at) / RFU FAM167A (11723789_a_at) / Fold change /veh FAM167A (11723789_a_at) / RFU FAM26E (11764081_at) / Fold change /veh FAM26E (11764081_at) / RFU ISYNA1 (11749810_s_at) / Fold change /veh ISYNA1 (11749810_s_at) / RFU ACY1 (11761880_at) / Fold change /veh ACY1 (11761880_at) / RFU 11764098_at / Fold change /veh 11764098_at / RFU SAMD14 (11745864_x_at) / Fold change /veh SAMD14 (11745864_x_at) / RFU NPB (11741838_a_at) / Fold change /veh NPB (11741838_a_at) / RFU TMPRSS6 (11731388_a_at) / Fold change /veh TMPRSS6 (11731388_a_at) / RFU KRTAP10-2 (11738614_at) / Fold change /veh KRTAP10-2 (11738614_at) / RFU ARHGAP8 /// PRR5-ARHGAP8 (11727945_x_at) / Fold change /veh ARHGAP8 /// PRR5-ARHGAP8 (11727945_x_at) / RFU KRTAP5-7 /// NADSYN1 (11734609_at) / Fold change /veh KRTAP5-7 /// NADSYN1 (11734609_at) / RFU RASL12 (11751679_a_at) / Fold change /veh RASL12 (11751679_a_at) / RFU CDKN2B (11736163_a_at) / Fold change /veh CDKN2B (11736163_a_at) / RFU PRF1 (11729649_at) / Fold change /veh PRF1 (11729649_at) / RFU, ZNF638 /// ZNF638-IT1 / Fold change vs veh, ZNF638 /// ZNF638-IT1 / RFU, PANK3 / Fold change vs veh, PANK3 / RFU, SH3YL1 / Fold change vs veh, SH3YL1 / RFU, ZEB2 / Fold change vs veh, ZEB2 / RFU, NRIP1 / Fold change vs veh, NRIP1 / RFU, PTTG1IP / Fold change vs veh, PTTG1IP / RFU, CAPN2 / Fold change vs veh, CAPN2 / RFU, MED14 / Fold change vs veh, MED14 / RFU, SNORA58 / Fold change vs veh, SNORA58 / RFU, C1orf63 / Fold change vs veh, C1orf63 / RFU, LRRFIP1 / Fold change vs veh, LRRFIP1 / RFU, NDUFAF7 / Fold change vs veh, NDUFAF7 / RFU, SLC12A2 / Fold change vs veh, SLC12A2 / RFU, IBTK / Fold change vs veh, IBTK / RFU, ESF1 / Fold change vs veh, ESF1 / Fold change vs veh, TMEM50B / RFU, TAOK1 / Fold change vs veh, TAOK1 / RFU, ACBD3 / Fold change vs veh, ACBD3 / RFU, TMA16 / Fold change vs veh, TMA16 / RFU, RWDD3 / Fold change vs veh, RWDD3 / RFU, BCAT1 / Fold change vs veh, BCAT1 / RFU, EDEM3 / Fold change vs veh, EDEM3 / RFU, TMEM33 / Fold change vs veh, TMEM33 / RFU, WDR75 / Fold change vs veh, WDR75 / RFU, AHCTF1 / Fold change vs veh, AHCTF1 / RFU, TFRC / Fold change vs veh, TFRC / RFU, ZDHHC17 / Fold change vs veh, ZDHHC17 / RFU, NOM1 / Fold change vs veh, NOM1 / RFU, ARL8B / Fold change vs veh, ARL8B / RFU, ZBTB11 / Fold change vs veh, ZBTB11 / RFU, TAMM41 / Fold change vs veh, TAMM41 / RFU, KIAA1704 /// LOC100996395 / Fold change vs veh, KIAA1704 /// LOC100996395 / RFU, ING1 / Fold change vs veh, ING1 / RFU, TRMT61B / Fold change vs veh, TRMT61B / RFU, FUBP3 / Fold change vs veh, FUBP3 / RFU, TP53 / Fold change vs veh, TP53 / RFU, TNKS2 / Fold change vs veh, TNKS2 / RFU, ZFP14 / Fold change vs veh, ZFP14 / RFU, ACTR2 / Fold change vs veh, ACTR2 / RFU, PPP3R1 / Fold change vs veh, PPP3R1 / RFU, PIK3R1 / Fold change vs veh, PIK3R1 / RFU, HNRNPA1 / Fold change vs veh, HNRNPA1 / RFU, RNF170 / Fold change vs veh, RNF170 / RFU, ZNF28 / Fold change vs veh, ZNF28 / RFU, RNGTT / Fold change vs veh, RNGTT / RFU, OGT / Fold change vs veh, OGT / RFU, BRD1 / Fold change vs veh, BRD1 / RFU, MARS / Fold change vs veh, MARS / RFU, ZNF655 / Fold change vs veh, ZNF655 / RFU, FAHD1 / Fold change vs veh, FAHD1 / RFU, BDP1 / Fold change vs veh, BDP1 / RFU, LRRCC1 / Fold change vs veh, LRRCC1 / RFU, ARID1A / Fold change vs veh, ARID1A / RFU, ZNF146 / Fold change vs veh, ZNF146 / RFU, ZNF330 / Fold change vs veh, ZNF330 / RFU, GPN3 / Fold change vs veh, GPN3 / RFU, C9orf123 / Fold change vs veh, C9orf123 / RFU, N4BP2L2 / Fold change vs veh, N4BP2L2 / RFU, ARFIP1 / Fold change vs veh, ARFIP1 / RFU, FAM179B / Fold change vs veh, FAM179B / RFU, BCL10 / Fold change vs veh, BCL10 / RFU, UHRF1BP1L / Fold change vs veh, UHRF1BP1L / RFU, BET1 / Fold change vs veh, BET1 / RFU, CNOT2 / Fold change vs veh, CNOT2 / RFU, ZNF268 / Fold change vs veh, ZNF268 / Fold change vs veh, ZNF507 / RFU, DGCR2 / Fold change vs veh, DGCR2 / RFU, WDSUB1 / Fold change vs veh, WDSUB1 / Fold change vs veh, HSP90B1 /// MIR3652 / RFU, ADSS / Fold change vs veh, ADSS / RFU, GK / Fold change vs veh, GK / RFU, ZNF148 / Fold change vs veh, ZNF148 / RFU, TAF9 / Fold change vs veh, TAF9 / RFU, SLC1A5 / Fold change vs veh, SLC1A5 / RFU, SLMO2 / Fold change vs veh, SLMO2 / RFU, ABCC4 / Fold change vs veh, ABCC4 / RFU, LOC101060439 /// RAP1B / Fold change vs veh, LOC101060439 /// RAP1B / RFU, RFX7 / Fold change vs veh, RFX7 / RFU, GTPBP10 / Fold change vs veh, GTPBP10 / RFU, CNEP1R1 / Fold change vs veh, CNEP1R1 / RFU, BIVM-ERCC5 /// ERCC5 / Fold change vs veh, BIVM-ERCC5 /// ERCC5 / RFU, ILF3 / Fold change vs veh, ILF3 / RFU 11762660_at / Fold change /veh 11762660_at / RFU VCAN (11757783_s_at) / Fold change /veh VCAN (11757783_s_at) / RFU DDX43 (11728927_at) / Fold change /veh DDX43 (11728927_at) / RFU KRT8 (11758188_x_at) / Fold change /veh KRT8 (11758188_x_at) / RFU NKD1 (11759106_at) / Fold change /veh NKD1 (11759106_at) / RFU SRD5A1 (11742802_a_at) / Fold change /veh SRD5A1 (11742802_a_at) / RFU TPSAB1 /// TPSB2 (11721975_s_at) / Fold change /veh TPSAB1 /// TPSB2 (11721975_s_at) / RFU GSTM3 (11746129_a_at) / Fold change /veh GSTM3 (11746129_a_at) / RFU IL23R (11737362_x_at) / Fold change /veh IL23R (11737362_x_at) / RFU TMEM51 (11727254_a_at) / Fold change /veh TMEM51 (11727254_a_at) / RFU PIWIL2 (11732686_x_at) / Fold change /veh PIWIL2 (11732686_x_at) / RFU ORM1 (11744905_x_at) / Fold change /veh ORM1 (11744905_x_at) / RFU CCDC152 (11743942_at) / Fold change /veh CCDC152 (11743942_at) / RFU ECM1 (11717891_a_at) / Fold change /veh ECM1 (11717891_a_at) / RFU IL23R (11748794_a_at) / Fold change /veh IL23R (11748794_a_at) / RFU TNFAIP8L3 (11732012_x_at) / Fold change /veh TNFAIP8L3 (11732012_x_at) / RFU MBOAT4 (11741988_at) / Fold change /veh MBOAT4 (11741988_at) / RFU 11764193_at / Fold change /veh 11764193_at / RFU TMEM53 (11763286_at) / Fold change /veh TMEM53 (11763286_at) / RFU MAGEB2 (11727129_at) / Fold change /veh MAGEB2 (11727129_at) / RFU TMEM200A (11744735_a_at) / Fold change /veh TMEM200A (11744735_a_at) / RFU CCDC152 (11751479_a_at) / Fold change /veh CCDC152 (11751479_a_at) / RFU FAM211A (11726209_a_at) / Fold change /veh FAM211A (11726209_a_at) / RFU RGS16 (11746705_a_at) / Fold change /veh RGS16 (11746705_a_at) / RFU VCAN (11755009_s_at) / Fold change /veh VCAN (11755009_s_at) / RFU RHOB (11743442_s_at) / Fold change /veh RHOB (11743442_s_at) / RFU RGS16 (11720943_a_at) / Fold change /veh RGS16 (11720943_a_at) / RFU RGS16 (11720944_at) / Fold change /veh RGS16 (11720944_at) / RFU, VPS4B / Fold change vs veh, VPS4B / RFU, CREB1 / Fold change vs veh, CREB1 / RFU, DNAJC13 / Fold change vs veh, DNAJC13 / RFU, GNAQ / Fold change vs veh, GNAQ / RFU, CDK5R1 / Fold change vs veh, CDK5R1 / RFU, ZRANB3 / Fold change vs veh, ZRANB3 / RFU, CUL4A / Fold change vs veh, CUL4A / RFU, CCNY / Fold change vs veh, CCNY / RFU, UFL1 / Fold change vs veh, UFL1 / RFU, COG3 / Fold change vs veh, COG3 / RFU, DIAPH2 / Fold change vs veh, DIAPH2 / RFU, SKA2 / Fold change vs veh, SKA2 / RFU, AFF3 / Fold change vs veh, AFF3 / RFU, LMF1 / Fold change vs veh, LMF1 / RFU, IPO11 / Fold change vs veh, IPO11 / RFU, DFFB / Fold change vs veh, DFFB / RFU, FOXP1 / Fold change vs veh, FOXP1 / RFU, CARD8 / Fold change vs veh, CARD8 / RFU, STRN3 / Fold change vs veh, STRN3 / RFU, ADK / Fold change vs veh, ADK / RFU, RASSF2 / Fold change vs veh, RASSF2 / RFU, WIPF1 / Fold change vs veh, WIPF1 / RFU, LARP1B / Fold change vs veh, LARP1B / RFU, RASA1 / Fold change vs veh, RASA1 / RFU, RB1 / Fold change vs veh, RB1 / RFU, PPFIA1 / Fold change vs veh, PPFIA1 / RFU, MAT2A / Fold change vs veh, MAT2A / RFU, CCT5 / Fold change vs veh, CCT5 / RFU, WDR92 / Fold change vs veh, WDR92 / RFU, CUX1 / Fold change vs veh, CUX1 / RFU, TTC7A / Fold change vs veh, TTC7A / RFU, TMEM135 / Fold change vs veh, TMEM135 / RFU, DEPTOR / Fold change vs veh, DEPTOR / RFU, CPM / Fold change vs veh, CPM / RFU, DNAJB6 / Fold change vs veh, DNAJB6 / RFU, CACNA2D3 / Fold change vs veh, CACNA2D3 / RFU, DTX4 / Fold change vs veh, DTX4 / RFU, TFCP2 / Fold change vs veh, TFCP2 / RFU, GMCL1 /// GMCL1P1 / Fold change vs veh, GMCL1 /// GMCL1P1 / RFU, AEBP2 / Fold change vs veh, AEBP2 / RFU, SNHG1 /// SNORD22 /// SNORD25 /// SNORD26 /// SNORD27 /// SNORD28 /// SNORD29 /// SNORD31 / Fold change vs veh, SNHG1 /// SNORD22 /// SNORD25 /// SNORD26 /// SNORD27 /// SNORD28 /// SNORD29 /// SNORD31 / Fold change (Aza/veh), C12orf56 (ProbeSet 11735607_a_at) / Fold change (ACY-1035/veh), C12orf56 (ProbeSet 11735607_a_at) / Fold change (Aza/veh), FGFR1OP (ProbeSet 11751329_s_at) / Fold change (ACY-1035/veh), FGFR1OP (ProbeSet 11751329_s_at) / Fold change (Aza/veh), VPS36 (ProbeSet 11739960_a_at) / Fold change (ACY-1035/veh), VPS36 (ProbeSet 11739960_a_at) / RFU SYPL1 (11715823_x_at) / Fold change /veh SYPL1 (11715823_x_at) / RFU IGFBP7 (11715501_s_at) / Fold change /veh IGFBP7 (11715501_s_at) / RFU REEP3 (11722064_at) / Fold change /veh REEP3 (11722064_at) / RFU IGLL1 (11728026_x_at) / Fold change /veh IGLL1 (11728026_x_at): dose or concentration left out as unconfirmed
# Conditions: MV-4-11 cells, 48 hours
smiles,measurement,value
Nc1ccc(-c2cccs2)cc1NC(=O)c1ccc2c(c1)cc(C1CC1)n2CCN1CCOCC1 [ACY-1035],Fold change /veh ANKRD19P (11752326_a_at),1.02
